This is an account of results in PMC8056388 (ACS Chemical Biology, 2021).

By EC50 is commonly meant the concentration that produces a half-maximal response. High values mean lower potency in that assay, low ones higher potency in that assay.

SMILES strings stand for the structures.

In one assay the test system is phzH. Kind of assay: qRT-PCR of phzH transcript. Particulars: P. aeruginosa PA14, 100 μM compound. For orientation: Quantitative PCR measures a nucleic acid by following its amplification.
Assay [1] concerns the target T1, PqsE S285A (Pseudomonas aeruginosa, UniProt P20581, S285A). It counts as binding.
The test system of another assay is hcnA. Kind of assay: qRT-PCR of hcnA transcript. Particulars: P. aeruginosa PA14, 100 μM compound.
In assay [2] the target is T1, PqsE S285A. The assay is classed as biochemical.
In assay [3] the target is T2, WT PqsE (Pseudomonas aeruginosa, UniProt P20581). Kind of assay: biochemical. The assay is classed as binding.
The next assay has as its system P. aeruginosa PA14. It counts as cell-based. The note with it: P. aeruginosa PA14 cultures, 100 μM compound, 17 h.
For a further assay, the target named is PqsE-RhlR interaction (Pseudomonas aeruginosa, UniProt P20581). Kind of assay: PqsE-RhlR interaction pull-down assay. Particulars: PqsE:compound 1:1 and 1:2 molar ratios, SDS-PAGE. The assay is classed as binding.
A further assay deals with PqsE S160A (Pseudomonas aeruginosa, UniProt P20581, S160A). The assay is classed as binding.
For assay [4], the target named is T2, WT PqsE. The assay is described as follows: Fluorescence polarization binding of BB562. The note with it: purified WT PqsE.
Another assay deals with P. aeruginosa PAO1. Particulars: cited from earlier work.

For the compound `O=C(Nc1cccc(-c2ccn[nH]2)c1)c1cccc2cn[nH]c12` [BB391], the “transcription of phzH” value in the assay on phzH was “neither molecule drove altered transcription”. The “ΔTm PqsE S285A” value at PqsE S285A [1] is reported as “lost the ability to shift the Tm”. Also, in the assay on hcnA, the “transcription of hcnA” value was “neither molecule drove altered transcription”. Further, the “projected IC50 for PqsE S285A relative to WT PqsE” value on PqsE S285A [2] was “at least a log unit higher”. The EC50 on WT PqsE [3] stood at 255 nM. The pyocyanin production result in the assay on P. aeruginosa PA14 was “neither molecule caused any decrease in pyocyanin production”. The “suppression of the interaction between PqsE and RhlR” value on PqsE-RhlR interaction is “neither BB391 nor BB393 suppressed the interaction”. The “ΔTm PqsE S160A” value on PqsE S160A is 5.0 °C.

Turning to `O=C(NCCCn1cc(-c2ccc(NC(=O)c3cccc4cn[nH]c34)cc2)nn1)c1ccc2c(c1)C(=O)OC21c2ccc(O)cc2Oc2cc(O)ccc21` [BB562], at WT PqsE [4], the “apparent binding constant (Kapp), in words” value was “midnanomolar range”.

In the case of `O=C(O)c1ccccc1-c1cccnc1` [C1, 2-(pyridin-3′-yl) benzoic acid, reference compound], the “ΔTm PqsE S285A” value at PqsE S285A [1] is 8.5 °C. The pyocyanin production result in the assay on P. aeruginosa PAO1 is given as “did not affect pyocyanin production”. Also, on PqsE S160A, the “ΔTm PqsE S160A” value stood at 12.1 °C.
